Measurements as given in patent publication US20070219234A1, “Thienopyridine Derivatives” (priority 2004, published 2007).

What was measured:
female F344 rats [1] = test: Effect on fracture healing; type: in vivo, rat; conditions: orally once per day, six days a week, 39 days
Protocol: 12 week-old female F344 rats were purchased from Charles River Laboratories and used in the following experiment. An operation for fracturing bone was performed following a method of Li et al. (J. Bone Miner. Res 1999, 14: 969-979) under ketamine xylazine anesthesia. From the next day of the operation, 0.5% carboxymethyl cellulose sodium salt solution (Wako Pure Chemical Industries, Ltd. Cat. No. 039-01335) in which a test compound was suspended was orally administered once per day and six days a week. 39 days after the administration started, the animals were painlessly killed by removing the whole blood from the aorta abdominalis under ketamine xylazine anesthesia and the femurs were extracted.
After soft tissue was removed from the extracted femurs, they were measured by bone strength measuring apparatus MZ-500D (Maruto Instrument Co., Ltd.). 3-point bending tests were performed and determined by maximum load.

ST2 cells = test: Osteoblast differentiation test (alkaline phosphatase activity); type: cell-based; conditions: Mus musculus, ST-2, 96 h; at 0.03 μg/mL; culturing for four days; control group (0.1% DMSO) = 100%; read-out: alkaline phosphatase activity increase rate
Protocol: ST2 cells (available from Institute of Physical and Chemical Research) which are stroma cells derived from mouse marrow were used. In this test, α-MEM medium (available from GIBCO BRL Cat. No. 10370-021) with which 10% (v/v) inactivated fetal bovine serum (available from Hyclone Company, FBS) and 1% (v/v) Penicillin-Streptomycin, Liquid (available from GIBCO BRL Cat. No. 15140-122) are mixed (hereinbelow abbreviated as 10% -FBS-αMEM) was used. Every culture in this test was conducted in a CO2 incubator (37° C., 95% humidity, 5% CO2).
The cells mentioned above were harvested with 2 mL of 0.25% trypsin solution (available from GIBCO BRL Cat. No. 15050-065) and after they were dispersed by adding 10 mL of 10% -FBS-αMEM, the cells were collected by centrifugal separation (25° C., 800 rpm, 5 minutes). A cell suspension containing 40,000 cells/mL was prepared from the collected cells using 10% -FBS-αMEM.
The cell suspension was dispensed to the wells of a 96 well microplate (Falcon company) in an amount of 100 μL per well so as to achieve 4,000 cells/well and cultured for 24 hours. Compounds were dispensed to the wells in final concentrations of 0.01, 0.03, 0.1, 0.3 μg/ml except the following control group. DMSO was dispensed to the wells of the control group in a final concentration of 0.1% (v/v). Alkaline phosphatase (ALP) activity was measured for each group after culturing for four days.
The measurement of ALP activity was performed as follows. That is, after the whole medium was removed from each well of the culturing plate, each well was washed twice by dispensing and removing 100 μL of Dulbecco's phosphate buffer (available from GIBCO BRL Cat. No. 14190-144). Cell lysing solution containing 10 mM MgCl2 and 2%(v/v) TritonX-100 (Sigma company) was prepared and 50 μL/well of the cell lysing solution was dispensed and the mixture was stirred at room temperature for five minutes. An ALP substrate solution containing 50 mM of diethanolamine (Wako Pure Chemical Industries, Ltd. Cat. No. 099-03112) and 20 mM of […] (Wako Pure Chemical Industries, Ltd. Cat. No. 147-02343) was prepared and 50 μL/well of the ALP substrate solution was dispensed and after allowing to stand at room temperature for 10 minutes, absorbance was measured using a microplate reader (Bio-rad company). Alkaline phosphatase activity increase rate (%) in the group blended with test compounds was calculated assuming the observed value of the control group of each plate to be 100% and evaluated as the osteoblast differentiation promoting activity.

[2] = system: cells from femurs and tibias of ICR mice; test: Osteoclast formation suppression test (TRAP activity); type: cell-based, mouse; conditions: 20 nM active form vitamin D3; compounds 0.01-0.3 μg/ml; culturing for five days
Protocol: 18 day-old ICR mice were purchased from Japan SLC, Inc. and used in the following experiments. The mice were sacrificed by cervical dislocation and the right and left femurs and tibias were extracted. After the tissue around the extracted femurs and tibias was removed, they were finely minced with scissors. 10 mL of 15%-FBS-αMEM was added to the minced femurs and tibias and the supernatant was collected after agitation for one minute and filtering with a cell strainer (Becton Dickinson company). A cell suspension containing 500,000 cells/mL was prepared with 15%-FBS-αMEM. The cell suspension was dispensed to the wells of a 96 well microplate (Falcon company) in an amount of 100 μL per well so as to achieve 50,000 cells/well and cultured for 24 hours. Active form vitamin D3 (Sigma company, Cat.No.D1530) was dispensed to the wells in final concentrations of 20 nM. Compounds were dispensed to the wells in final concentrations of 0.01, 0.03, 0.1, 0.3 μg/ml except the following control group. DMSO was dispensed to the wells of the control group in a final concentration of 0.1% (v/v). Tartrate-resistant acid phosphatase (TRAP) activity was measured for each group after culturing for five days.
The measurement of TRAP activity was performed as follows. That is, after the whole medium was removed from each well of the culturing plate, each well was washed twice by dispensing and removing 100 μL of Dulbecco's phosphate buffer (available from GIBCO BRL Cat. No. 14190-144). After retaining with a mixture of acetone-ethanol (1:1) for one minute, the retention liquid was removed and the wells were stained at 37° C. with Leukocyte acid phosphatase kit (Sigma company, Cat. No. 387-A) for 30 minutes. The staining solution was removed, then 100 μL of 10% sodium dodecylsulfate (Wako Pure Chemical Industries, Ltd. Cat. No. 191-07145) was dispensed and the mixture was stirred for five minutes, and then absorbance was measured using a microplate reader (Bio-rad company). TRAP activity decrease rate (%) in the group blended with test compounds was calculated assuming the observed value of the control group of each plate to be 100% and evaluated as the osteoclast formation suppression activity.

female F344 rats [3] = test: Effect on bone mineral density (ovariectomy); type: in vivo, rat; conditions: 10 mg/kg, orally once per day, six days a week, six weeks
Protocol: 8 week-old female F344 rats were purchased from Charles River Laboratories and used in the following experiment. After ketamine (12.5 mg/ml)/xylazine (2.5 mg/ml) liquid mixture was intraperitoneally injected in an amount of 0.25 ml/100 g for anesthesia, ovariectomy or a sham operation was performed. From the next day of the operation, 0.5% carboxymethyl cellulose sodium salt solution (Wako Pure Chemical Industries, Ltd. Cat. No.039-01335) in which a test compound was suspended was orally administered once per day and six days a week. Six weeks after the administration started, the animals were painlessly killed by removing the whole blood from the aorta abdominalis under ketamine xylazine anesthesia and the right and left femurs were extracted.
After soft tissue was removed from the extracted femurs, the bone density was measured by DXA device DCS-600R (Aloka Co., Ltd.). The bone density was determined for the whole femur as well as three evenly divided parts, i.e., proximal, midshaft and distal end.

| melting point | SMILES | fracture healing (3-point bending test, maximum load) (female F344 rats [1]) | activity at 0.03 µg/mL (ST2 cells) | osteoclast formation suppression effect (TRAP activity decrease rate) [2] | bone density of femur (DXA) (female F344 rats [3]) |
| --- | --- | --- | --- | --- | --- |
|  | NC(=O)c1sc2nccc(N3CCCN(c4ccccc4)CC3)c2c1N [Example 57, 3-amino-4-(4-phenyl-1,4-diazepan-1-yl)thieno[2,3-b]pyridine-2-carboxamide] | significantly improved fracture healing | > 150% | excellent osteoclast formation suppression effect | significantly increased the bone density |
| 237 to 239 °C | NC(=O)c1sc2nccc(N3CCCN(c4ccccn4)CC3)c2c1N [Example 99, 3-amino-4-(4-pyridin-2-yl-1,4-diazepan-1-yl)thieno[2,3-b]pyridine-2-carboxamide] |  | > 150% | excellent osteoclast formation suppression effect |  |
| 229 to 230 °C | COCC1CCCN(c2ccnc3sc(C(N)=O)c(N)c23)C1 (stereo not shown) [Example 101, 3-amino-4-[3-(methoxymethyl)piperidin-1-yl]thieno[2,3-b]pyridine-2-carboxamide] |  | > 150% | excellent osteoclast formation suppression effect |  |
| 205 to 208 °C | Cc1ccc(N2CCCN(c3ccnc4sc(C(N)=O)c(N)c34)CC2)nc1 [Example 106, 3-amino-4-[4-(5-methylpyridin-2-yl)-1,4-diazepan-1-yl]thieno[2,3-b]pyridine-2-carboxamide] |  | > 150% | excellent osteoclast formation suppression effect |  |
